Measured values published in patent US20230404928A1, “NANOCAPSULE AND USES THEREOF” (CHINA MEDICAL UNIVERSITY, priority 2022, published 2023).

Assays:
[1] = system: neural precursor cells (NPCs); assay: Ki-67 immunohistochemistry of brain sections (NPC proliferation, SVZ and HDG); format: in vivo, mice; conditions: SVZ and HDG areas, versus saline control
Description: FIGS. 9A to 9D show representative images of Ki-67 staining after MTDS with MN treatment in comparison with saline control, free rt-PA, MTDS in SVZ area (FIG. 9A) and HDG area (FIG. 9B). (Scale bar=50 μm). Quantitative data of NPCs by immunohistochemistry staining in SVZ area (FIG. 9C) (Ki-67^+ cells) and HDG area (FIG. 9D) (Ki-67^+ cells).
The subventricular zone (SVZ) and hippocampal dentate gyrus (DG) are known to trigger the activation of resting neural precursor cells (NPCs) when the brain suffers from ischemic injury. NPCs mainly reside in the SVZ, while the DG has the ability to differentiate into a range of neurons and glial cells.

[2] = system: MACO mice; assay: thrombolysis time and cerebral blood flow after MCAO; format: in vivo
[3] = as above; format: in vivo, mice; conditions: thrombus not completely dissolved
[4] = drug release behavior study (rtPA release); format: physicochemical; conditions: in the first hour
Description: To measure the loading of rtPA (rtPA-FANC=(MTDS)) in FANC, analysis using […] protein analysis (BCA) was performed. The encapsulation efficiency (EE) of rtPA in FANC is 73.94% and the loading capacity (LC) is 22.49%. To observe the rtPA release rate of FANC, further drug release behavior studies were conducted. […] This slower release behavior can effectively protect rtPA from metabolic effects and reduce the damage caused in the blood circulation system.

recombinant tissue-type plasminogen activator [rtPA]
number of Ki-67^+ cells [1]: no significant difference
thrombolytic activity ([2]; FIG. 8a, right MCA images): able to dissolve the thrombus
time to partial thrombolysis ([2]; rtPA 10 mg kg^−1): approximately 80 minutes
blood flow restored (CBF) ([2]; within 120 minutes, rtPA 10 mg kg^−1): approximately 80%
CBF recovery, maximum [3]: ≤ 90%
rtPA release [4]: more than 60%
